Tests used:
Human plasma kallikrein = Human plasma kallikrein (Homo sapiens (Human), UniProt P03952); assay: Kallikrein Assay (fluorogenic substrate Acetyl-K-P-R-AFC); type: biochemical; conditions: Plasma Kallikrein (PKal)
Outline: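 Ki is derived from IC50 with the Cheng-Prusoff equation, and IC50 from the inflection point of a four-parameter logistic curve. The rate of AFC release is read with 0.5 nM purified enzyme and […] substrate at room temperature or 37 °C.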

human Factor XIa = human Factor XIa (Homo sapiens (Human), UniProt P03951); assay: Factor XIa Assay (fluorogenic substrate GPR-AFC); type: biochemical; conditions: Factor XIa (FXIa)
Sequence of human Factor XIa (P03951 388-625 limits assumed): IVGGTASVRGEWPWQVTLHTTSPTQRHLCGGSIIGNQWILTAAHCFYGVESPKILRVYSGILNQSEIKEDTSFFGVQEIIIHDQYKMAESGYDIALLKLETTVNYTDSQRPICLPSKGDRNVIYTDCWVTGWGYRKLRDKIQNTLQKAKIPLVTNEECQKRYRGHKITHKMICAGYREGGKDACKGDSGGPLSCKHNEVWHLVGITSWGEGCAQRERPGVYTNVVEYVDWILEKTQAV
Sequence of human Factor XIa (P03951 19-387 partner limits assumed): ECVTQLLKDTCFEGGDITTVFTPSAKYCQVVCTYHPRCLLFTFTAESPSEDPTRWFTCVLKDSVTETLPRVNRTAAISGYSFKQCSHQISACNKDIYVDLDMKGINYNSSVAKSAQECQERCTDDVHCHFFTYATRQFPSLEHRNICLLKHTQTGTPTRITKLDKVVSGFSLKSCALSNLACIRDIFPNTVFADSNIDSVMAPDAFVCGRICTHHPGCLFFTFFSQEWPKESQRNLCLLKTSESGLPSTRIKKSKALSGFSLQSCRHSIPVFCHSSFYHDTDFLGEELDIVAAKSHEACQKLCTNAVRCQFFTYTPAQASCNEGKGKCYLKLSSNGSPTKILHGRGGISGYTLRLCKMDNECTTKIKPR

Sequence of Human plasma kallikrein (P03952 391-638): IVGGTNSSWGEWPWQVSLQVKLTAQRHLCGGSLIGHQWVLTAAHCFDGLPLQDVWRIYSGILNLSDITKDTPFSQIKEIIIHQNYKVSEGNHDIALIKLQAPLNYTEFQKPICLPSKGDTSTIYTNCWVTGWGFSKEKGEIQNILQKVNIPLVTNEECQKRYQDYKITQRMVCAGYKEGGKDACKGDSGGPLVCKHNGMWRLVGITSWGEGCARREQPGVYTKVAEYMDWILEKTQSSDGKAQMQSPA
Sequence of Human plasma kallikrein (P03952 20-390 partner): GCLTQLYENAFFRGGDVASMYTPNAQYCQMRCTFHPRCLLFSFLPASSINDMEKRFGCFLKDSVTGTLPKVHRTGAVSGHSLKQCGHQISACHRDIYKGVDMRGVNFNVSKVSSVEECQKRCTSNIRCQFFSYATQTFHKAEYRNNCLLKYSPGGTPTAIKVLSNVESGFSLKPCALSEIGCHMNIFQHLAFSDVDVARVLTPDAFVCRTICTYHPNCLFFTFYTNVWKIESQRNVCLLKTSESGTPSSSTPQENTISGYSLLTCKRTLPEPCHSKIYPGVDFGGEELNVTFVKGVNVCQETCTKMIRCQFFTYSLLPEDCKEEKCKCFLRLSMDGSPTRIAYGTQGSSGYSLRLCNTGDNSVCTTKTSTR

| SMILES | IC50 (Human plasma kallikrein) [nM] | IC50 (human Factor XIa) [nM] |
| --- | --- | --- |
| Cc1cc([C@@H](C)n2cc(NC(=O)c3nc(-c4c(OC(F)F)ccc(Cl)c4F)cnc3C)cn2)nnc1N1C[C@H]2C[C@H]2C1=O [Example 40, 6-(3-Chloro-6-(difluoromethoxy)-2-fluorophenyl)-3-methyl-N-(1-((R)-1-(5-methyl-6-((1R,5S)-2-oxo-3-azabicyclo[3.1.0]hexan-3-yl)pyridazin-3-yl)ethyl)-1H-pyrazol-4-yl)pyrazine-2-carboxamide] | 1.8 | 255 |
| Cc1cc(N2C[C@H]3C[C@H]3C2=O)nnc1Cn1cc(NC(=O)c2nc(-c3c(C(F)F)ccc(Cl)c3F)cnc2C)cn1 [Example 84, 6-(3-Chloro-6-(difluoromethyl)-2-fluorophenyl)-3-methyl-N-(1-((4-methyl-6-((1R,5S)-2-oxo-3-azabicyclo[3.1.0]hexan-3-yl)pyridazin-3-yl)methyl)-1H-pyrazol-4-yl)pyrazine-2-carboxamide] | 20.7 | 5710 |
| Cc1ncc(-c2c(C(F)F)ccc(Cl)c2F)nc1C(=O)Nc1cnn(Cc2cnc(N3C[C@H]4C[C@H]4C3=O)c3c2OCO3)c1 [Example 149, 6-(3-Chloro-6-(difluoromethyl)-2-fluorophenyl)-3-methyl-N-(1-((4-((1R,5S)-2-oxo-3-azabicyclo[3.1.0]hexan-3-yl)-[1,3]dioxolo[4,5-c]pyridin-7-yl)methyl)-1H-pyrazol-4-yl)pyrazine-2-carboxamide] | 0.9 | 244 |
| Cc1ncc(-c2c(C(F)F)ccc(Cl)c2F)nc1C(=O)Nc1cn(Cc2cnc(N3C[C@H]4C[C@H]4C3=O)c(C)n2)nn1 [Example 185, 6-(3-Chloro-6-(difluoromethyl)-2-fluorophenyl)-3-methyl-N-(1-((6-methyl-5-((1R,5S)-2-oxo-3-azabicyclo[3.1.0]hexan-3-yl)pyrazin-2-yl)methyl)-1H-1,2,3-triazol-4-yl)pyrazine-2-carboxamide] | 2.4 | 3180 |
| Cc1ncc(-c2c(C(F)F)ccc(Cl)c2F)nc1C(=O)Nc1cnn(Cc2ncc(N3C[C@H]4C[C@H]4C3=O)cc2F)c1 [Example 138, 6-(3-Chloro-6-(difluoromethyl)-2-fluorophenyl)-N-(1-((3-fluoro-5-((1R,5S)-2-oxo-3-azabicyclo[3.1.0]hexan-3-yl)pyridin-2-yl)methyl)-1H-pyrazol-4-yl)-3-methylpyrazine-2-carboxamide] | 47 | > 10000 |
| [2H]C1([2H])C2CC2C(=O)N1c1ncc([C@H](C)n2cc(NC(=O)c3nc(-c4c(C(F)F)ccc(Cl)c4F)cnc3C)cn2)c(C)n1 (single isomer, unassigned) [Example 178, 6-(3-Chloro-6-(difluoromethyl)-2-fluorophenyl)-3-methyl-N-(1-((S)-1-(4-methyl-2-((1R,5S or 1S,5R)-2-oxo-3-azabicyclo[3.1.0]hexan-3-yl-4,4-d2)pyrimidin-5-yl)ethyl)-1H-pyrazol-4-yl)pyrazine-2-carboxamide] | 14.2 | 4530 |
| Cc1cc(C(C)n2cc(NC(=O)c3nc(-c4c(C#N)ccc(Cl)c4F)cnc3C)cn2)cnc1N1C[C@H]2C[C@H]2C1=O (single isomer, unassigned) [Example 139, 6-(3-Chloro-6-cyano-2-fluorophenyl)-3-methyl-N-(1-((S or R)-1-(5-methyl-6-((1R,5S)-2-oxo-3-azabicyclo[3.1.0]hexan-3-yl)pyridin-3-yl)ethyl)-1H-pyrazol-4-yl)pyrazine-2-carboxamide] | 0.9 | 282 |
| Cc1cc(C(C)n2cc(NC(=O)c3nc(-c4c(C(F)F)ccc(Cl)c4F)cnc3C)cn2)nnc1N1C[C@H]2C[C@H]2C1=O (single isomer, unassigned) [Example 102, 6-(3-Chloro-6-(difluoromethyl)-2-fluorophenyl)-3-methyl-N-(1-((S or R)-1-(5-methyl-6-((1R,5S)-2-oxo-3-azabicyclo[3.1.0]hexan-3-yl)pyridazin-3-yl)ethyl)-1H-pyrazol-4-yl)pyrazine-2-carboxamide] | 0.7 | 739 |
| CC(c1cnc(N2C[C@H]3C[C@H]3C2=O)c2c1OC(F)(F)O2)n1cc(NC(=O)c2cncc(-c3c(C(F)F)ccc(Cl)c3F)n2)cn1 (single isomer, unassigned) [Example 249, 6-(3-Chloro-6-(difluoromethyl)-2-fluorophenyl)-N-(1-((S or R)-1-(2,2-difluoro-4-((1R,5S)-2-oxo-3-azabicyclo[3.1.0]hexan-3-yl)-[1,3]dioxolo[4,5-c]pyridin-7-yl)ethyl)-1H-pyrazol-4-yl)pyrazine-2-carboxamide] | 2.1 | > 10000 |
| O=C(Nc1cnn(Cc2ccc(N3C[C@H]4C[C@H]4C3=O)cc2)c1)c1cncc(-c2c(C(F)F)ccc(Cl)c2F)n1 [Example 145, 6-(3-Chloro-6-(difluoromethyl)-2-fluorophenyl)-N-(1-(4-((1R,5S)-2-oxo-3-azabicyclo[3.1.0]hexan-3-yl)benzyl)-1H-pyrazol-4-yl)pyrazine-2-carboxamide] | 2.4 | > 10000 |
| Cc1ncc(-c2c(C(F)F)ccc(Cl)c2F)nc1C(=O)Nc1cnn(C(C)c2cnc(N3C[C@H]4C[C@H]4C3=O)c(NC(=O)OC(C)(C)C)c2)c1 (mixture of isomers) [Example 96, tert-Butyl (5-((S and R)-1-(4-(6-(3-chloro-6-(difluoromethyl)-2-fluorophenyl)-3-methylpyrazine-2-carboxamido)-1H-pyrazol-1-yl)ethyl)-2-((1R,5S)-2-oxo-3-azabicyclo[3.1.0]hexan-3-yl)pyridin-3-yl)carbamate] | 10.8 | 3950 |
| Cc1c(C(C)n2cc(NC(=O)c3nc(-c4c(C(F)F)ccc(Cl)c4F)cnc3CO)cn2)cnc(N2C[C@H]3C[C@H]3C2=O)c1C (single isomer, unassigned) [Example 201, 6-(3-Chloro-6-(difluoromethyl)-2-fluorophenyl)-N-(1-((S or R)-1-(4,5-dimethyl-6-((1R,5S)-2-oxo-3-azabicyclo[3.1.0]hexan-3-yl)pyridin-3-yl)ethyl)-1H-pyrazol-4-yl)-3-(hydroxymethyl)pyrazine-2-carboxamide] | 0.4 | 52 |
| Cc1nc(N2C[C@H]3C[C@H]3C2=O)ncc1Cn1cc(NC(=O)c2nc(-c3c(OC(F)F)ccc(Cl)c3F)cnc2C)cn1 [Example 36, 6-(3-Chloro-6-(difluoromethoxy)-2-fluorophenyl)-3-methyl-N-(1-((4-methyl-2-((1R,5S)-2-oxo-3-azabicyclo[3.1.0]hexan-3-yl)pyrimidin-5-yl)methyl)-1H-pyrazol-4-yl)pyrazine-2-carboxamide] | 3 | 609 |
| Cc1ncc(-c2c(C(F)F)ccc(Cl)c2F)nc1C(=O)Nc1cnn(C(C)c2cnc(N3C[C@H]4C[C@H]4C3=O)c(C)n2)c1 (single isomer, unassigned) [Example 15, 6-(3-Chloro-6-(difluoromethyl)-2-fluorophenyl)-3-methyl-N-(1-((R or S)-1-(6-methyl-5-((1R,5S)-2-oxo-3-azabicyclo[3.1.0]hexan-3-yl)pyrazin-2-yl)ethyl)-1H-pyrazol-4-yl)pyrazine-2-carboxamide] | 0.4 | 992 |
| Cc1ncc(-c2c(C(F)F)ccc(Cl)c2F)nc1C(=O)Nc1cnn(C(C)c2ncc(N3C[C@H]4C[C@H]4C3=O)c(C)c2N)c1 (single isomer, unassigned) [Example 118, N-(1-((R or S)-1-(3-Amino-4-methyl-5-((1R,5S)-2-oxo-3-azabicyclo[3.1.0]hexan-3-yl)pyridin-2-yl)ethyl)-1H-pyrazol-4-yl)-6-(3-chloro-6-(difluoromethyl)-2-fluorophenyl)-3-methylpyrazine-2-carboxamide] | 1 | 7570 |
| O=C(Nc1cnn(C(CO)c2cnc(N3CC4CC4C3=O)nc2)c1)c1cncc(-c2c(C(F)F)ccc(Cl)c2F)n1 (single isomer, unassigned) [Example 161, 6-(3-chloro-6-(difluoromethyl)-2-fluorophenyl)-N-(1-((S or R)-2-hydroxy-1-(2-((1S,5R or 1R,5S)-2-oxo-3-azabicyclo[3.1.0]hexan-3-yl)pyrimidin-5-yl)ethyl)-1H-pyrazol-4-yl)pyrazine-2-carboxamide] | 26.7 | > 10000 |
| Cc1nc(C(C)n2cc(NC(=O)c3nc(-c4c(C(F)F)ccc(Cl)c4F)cnc3C)cn2)ccc1N1C[C@H]2C[C@H]2C1=O (single isomer, unassigned) [Example 59, 6-(3-Chloro-6-(difluoromethyl)-2-fluorophenyl)-3-methyl-N-(1-((R or S)-1-(6-methyl-5-((1R,5S)-2-oxo-3-azabicyclo[3.1.0]hexan-3-yl)pyridin-2-yl)ethyl)-1H-pyrazol-4-yl)pyrazine-2-carboxamide] | 3.2 | > 10000 |
| Cc1ncc(-c2c(C(F)F)ccc(Cl)c2F)nc1C(=O)Nc1cnn(C(C)c2ncc(N3C[C@H]4C[C@H]4C3=O)cc2F)c1 (single isomer, unassigned) [Example 137, 6-(3-Chloro-6-(difluoromethyl)-2-fluorophenyl)-N-(1-((S or R)-1-(3-fluoro-5-((1R,5S)-2-oxo-3-azabicyclo[3.1.0]hexan-3-yl)pyridin-2-yl)ethyl)-1H-pyrazol-4-yl)-3-methylpyrazine-2-carboxamide] | 7.7 | > 10000 |
| Cc1nc(N2C[C@H]3C[C@H]3C2=O)ncc1Cn1cc(NC(=O)c2nc(-c3c(C(F)F)ccc(Cl)c3F)cc(=O)n2C)cn1 [Example 81, 4-(3-Chloro-6-(difluoromethyl)-2-fluorophenyl)-1-methyl-N-(1-((4-methyl-2-((1R,5S)-2-oxo-3-azabicyclo[3.1.0]hexan-3-yl)pyrimidin-5-yl)methyl)-1H-pyrazol-4-yl)-6-oxo-1,6-dihydropyrimidine-2-carboxamide] | 1.8 | 94 |

— patent US20230286958A1, “PLASMA KALLIKREIN INHIBITORS” (Merck Sharp & Dohme LLC, priority 2020, published 2023)
